Patent publication US5968526A, “T cell epitopes of the major allergens from Dermatophagoides (house dust mite)” (Immulogic Pharamaceutical Corporation, priority 1995, dated 1999)

What was measured:
Format in all cases: cell-based, human
[1] = test system: PBMC from mite-allergic patient; assay: primary T cell (PBMC) proliferation, mite-allergic patient, tritiated thymidine; conditions: medium 1071 ± 30
Method: Peripheral blood mononuclear cells (PBMC) were purified by Ficoll-Hypaque centrifugation of a peripheral blood specimen from mite-allergic patient and were assayed for proliferation in response to various antigens, i.e., affinity-purified Der p I, affinity purified Der p II, various Der p I and Der p II peptides. For assay, 5×10^4 PBMC were cultured in triplicate microwells for 7 days at 37° C. in the presence of various concentrations of antigen in 200 μl RPMI-1640 containing 5% human AB serum. Each well then received 1 μCi tritiated thymidine for 16 hours. The counts incorporated were collected onto glass fiber filters and processed for liquid scintillation counting. […] The CPM +/- standard deviation are shown. The stimulation index of each response (S.I.) is the ratio of the ^3 H-thymidine CPM incorporated by the cells in response to antigen divided by the ^3 H-thymidine CPM incorporated by cells in medium only. […] Thus, these peptides contain Der p I or Der p II T cell epitopes recognized by T cells from this particular allergic patient.

[2] = test system: T cell lines primed in vitro to Der p I; assay: secondary proliferation of Der p I-primed T cell lines (Examples V, VII, XI); conditions: overlapping Der p I peptides; 33 positive experiments
Method: 10^7 PBMC from individual 543 were cultured in 10 ml RPMI-1640 containing 5% pooled human AB serum and supplemented with glutamine, penicillin, streptomycin and HEPES buffer in the presence of 20 μg/ml purified native Der p I/ml at 37° C. for 7 days. Viable cells were then purified by Ficoll-Hypaque centrifugation and cultured for 2 additional weeks in RPMI-1640/5% AB serum containing 5 units recombinant human IL-2/ml and 5 units recombinant human IL-4/ml. The resting T cells were then tested in a secondary proliferation assay to assess T cell responses to various house dust mite proteins and peptides. For assay, 2×10^4 resting T cells were cultured in 200 μl of RPMI-1640/5% AB serum for 3 days at 37° C. in the presence of 2×10^4 autologous Epstein-Barr virus transformed B cells (20,000 Rads) as antigen presenting cells with various concentrations of purified native Der p I or synthetic Der p I peptides. Each well then received 1 μCi tritiated thymidine for 16 hours. The counts incorporated were collected onto glass fiber filters and processed for liquid scintillation counting. Medium alone, acting as negative control, contained no allergen or peptide. The results of this experiment indicate that this particular patient responds with an S.I. of at least 2.0 to several peptides derived from the Der p I protein, including DP I-1, DP I-2, DP I-4, DP I-11, DP I-5, DP I-13, DP I-15, DP I-6.1, DP I-8, DP I-9, DP I-16, DP I-10 and DP I-17 (data not shown).
The above procedure was followed with a number of other house dust mite allergic individuals except a) in individual cases, the length of time of cultivation with IL-2 and IL-4 varied; b) in individual cases, the T cells were primed with either purified native (N) or recombinant (R) Der p I protein at either 20 μg/ml or 10 μg/ml; and c) in individual cases, x-irradiated (3500 Rads) autologous PBMC were used as antigen presenting cells in the secondary proliferation assay.
Individual results were considered positive and used if the individual responded to the Der p I protein and at least one peptide derived from Der p I at an S.I. of 2.0 or greater. The resting T cell lines primed with recombinant or native Der p I-stimulated PBMC were tested for reactivity to synthetic Der p I peptides. The maximum response for each peptide in a titration of the antigen is expressed as the T cell stimulation index (S.I.). The S.I. is the counts-per-minute (CPM) incorporated by cells in response to the peptide divided by the CPM incorporated by cells in medium only. […] However, only individual S.I. values greater than or equal to 2.0 (a response two-fold or greater over background), referred to herein as "positive" results, were used in calculating mean T cell stimulation indices for each peptide for the patient or group of patients tested. […] The T cell stimulation index is calculated by: [formula]
The bar represents the cumulative rank of the peptide response in the group of patients. To determine the cumulative rank, the 5 peptides with the highest S.I. in each individual were determined and assigned a numerical rank in descending order, with 5 representing the strongest response. The ranks for each peptide were then summed in the group of patients to determine the cumulative rank for the peptide. […] Given the percent positive and the mean T cell stimulation index, the positivity index (P.I.) for each peptide can be calculated.
The Der p I and Der f I proteins are very homologous (81% identity). Thus, experiments, similar to those of Example V, were carried out to determine the T cell responses of Der p I primed T cell lines when challenged with various Der p I peptides and substantially matching […].
The results of T cell studies using selected peptides derived from the Der p I, the Der f I, the Der p II and the Der f II proteins are shown in FIGS. 13-18a-d. […]

[3] = test system: T cell lines primed in vitro to Der f I; assay: secondary proliferation of Der f I-primed T cell lines (Examples VI, VII, XI); conditions: Der f I primed; 8 positive experiments; FIG. 8
Method: Experiments similar to those of Example V were performed to determine. the T cell-reactive areas of the Der f I protein. For example, PBMC from house dust mite-allergic patient 783 were isolated as described in Example V and were stimulated in vitro-- with recombinant purified Der f I at 20 μg/ml. The results of the proliferation assay with Der f I peptides using x-irradiated (3500 Rads) autologous PBMC as antigen presenting cells indicate that T cells from this patient respond to the peptides DF I-8.1, DF I-9, DF I-6, DF I-10, DF I-2.1, DF I-3, DF I-11, DF I-5, DF I-1, and DF I-17 (data not shown).
The above procedure was followed in a number of patients except in individual cases, T cell lines were primed with affinity purified Der f I at 20 μg/ml or at 10 μg/ml and x-irradiated (25,000 Rads) autologous Epstein-Barr virus transformed B cells were used as antigen presenting cells. […]
Similarly, the procedure described in Example VI was followed with T cell lines from 9 patients primed in vitro to the Der f I protein then analyzed for response to selected peptides derived from the protein. The data was analyzed as described in Example VI. […]

[4] = test system: T cell lines primed in vitro to Der p II; assay: secondary proliferation of Der p II-primed T cell lines (Examples VIII, X, XI); conditions: for T cell reactivity: overlapping Der p II peptides, 26 positive experiments, FIG. 9; for T cell response: patient 348, native Der p II primed, data not shown
Method: Experiments similar to those of Example V were performed to determine the T cell-reactive areas of the Der p II protein. For example, PBMC from house dust mite-allergic patient 348 were isolated as described in Example V and were stimulated in vitro with 20 μg/ml purified native Der p II.
The above procedure was followed with a number of patients except in individual cases, T cell lines were primed with recombinant Der p II at 20 μg/ml or at 3 μg/ml and x-irradiated (3500 Rads) autologous PBMC were used as antigen-presenting cells. The data was analyzed as described in Example V, except the ranked sum of peptide responses was analyzed assigning a value of 3, 2 or 1 to the three highest S.I. responses.
A study similar to that described in Example VII was carried out to determine the T cell cross-reactivity of the Der p II and Der f II proteins. T cells primed with the Der f II protein were challenged with various Der f II peptides and a set of substantially matching Der p II peptides.
Another experiment following the procedure described in Example VIII analyzed the response of 29 patients primed in vitro to the Der p II protein and challenged with selected peptides derived from the Der p II sequence.

[5] = test system: T cell lines primed in vitro with Der p II; assay: T cell proliferation with fine map and modified Group II peptides (Example XIV); conditions: FIGS. 32a-b
Method: Long term T cell lines were established by stimulation of 2×10^6 PBL/ml in bulk cultures of complete medium (RPMI-1640, 2 mM L-glutamine, 100 U/ml penicillin/streptomycin, 5×10^-5 M 2-mercaptoethanol, and 10 mM HEPES supplemented with 5% heat inactivated human AB serum) with 30 μg/ml of purified native Der p I or Der p II for 5-6 days at 37° C. in a humidified 5% CO2 incubator to select for house dust mite protein allergen reactive T cells. This amount of priming antigen was determined to be optimal for the activation of T cells from house dust mite allergic patients. Viable cells were purified by LSM centrifugation and cultured in complete medium supplemented with 5 units recombinant human IL-2/ml and 5 units recombinant human IL-4/ml for up to three weeks until the cells no longer responded to lymphokines and were considered "rested". The ability of the T cells to proliferate to selected peptides, purified Der p I or Der p II, or positive (PHA) controls or negative controls (medium only) was then assessed. For assay, 2×10^4 rested cells were restimulated in the presence of 2×10^4 autologous Epstein-Barr virus (EBV)-transformed B cells (prepared as described below) (gamma-irradiated with 25,000 RADS) or with 5×10^4 autologous PBMs (gamma-irradiated with 3500 RADS), with 2-50 μg/ml of purified native Der p I or Der p II in a volume of 200 μl complete medium in duplicate or triplicate wells in 96-well round bottom plates for 3 days. Each well then received 1 μCi tritiated thymidine for 16-20 hours. The counts incorporated were collected onto glass fiber filter mats and processed for liquid scintillation counting. […] The titrations were used to optimize the dose of peptides in T cell assays.
The maximum response in a titration of each peptide is expressed as the stimulation index (S.I.). The S.I. is the counts per minute (CPM) incorporated by cells in response to peptide, divided by the CPM incorporated by cells in medium only. […] The positive results were used in calculating mean stimulation indices for each peptide for the individual patient tested.
The above procedure was followed with 18 patients in the studies using peptides derived from Der p I and Der f I (FIGS. 31a-b), and 21 patients in the studies with Der p II peptides (FIGS. 32a-b). Individual patient results were used in calculating the mean S.I. for each peptide if the patient responded to the Der p I or Der p II protein at an S.I. of 2.0 or greater and the patient responded to at least one peptide derived from a house dust mite allergen at an S.I. f 2.0 or greater. A summary of positive experiments from the patients tested is shown in FIGS. 32a and 32b and FIGS. 33a and 33b. The bars represent the positivity index. […] In parenthesis above each bar are the mean stimulation indices for each peptide or protein for the group of patients tested.
Autologous EBV-transformed cell lines were γ-irradiated with 25,000 Rad and used as antigen presenting cells in secondary proliferation assays and secondary bulk stimulations. These EBV-transformed cell lines were made by incubating 5×10^6 PBL with 1 ml of B-59/8 Marmoset cell line (ATCC CRL1612, American Type Culture Collection, Rockville, Md.) conditioned medium in the presence of 1 μg/ml phorbol 12-myristate 13-acetate (PMA) at 37° C. for 60 minutes in 12×75 mm polypropylene round-bottom Falcon snap cap tubes (Becton Dickinson Labware, Lincoln Park, N.J.). These cells were then diluted to 1.25×10^6 cells/ml in RPMI-1640 as described above except supplemented with 10% heat-inactivated fetal bovine serum and cultured in 200 μl aliquots in flat bottom culture plates until visible colonies were detected. They were then transferred to larger wells until the cell lines were established.

| Substance | CPM ± S.D. ([1]; 10 μg/ml) | CPM ± S.D. ([1]; 30 μg/ml) | CPM ± S.D. ([1]; 100 μg/ml) | T cell reactivity [4] | T cell response [4] | T cell response, Group II peptides [5] | further results |
| --- | --- | --- | --- | --- | --- | --- | --- |
| DP I-8: Der p I peptide (IKDLDAFRHYDGTRIIQRDNGYQPNY) | 1439 ± 32 CPM | 1045 ± 32 CPM | 2272 ± 40 CPM |  |  |  | T cell reactivity [2]: significant regions of T cell reactivity; T cell response to Der p I peptides [3]: respond significantly |
| DP II-8: Der p II peptide (DIKYTWNVPKIAPKSENVVVTVKVMG) |  |  |  | significant T cell reactivity | responds well |  |  |
| DP II-9: Der p II peptide (VVTVKVMGDDGVLACAIATHAKIRD) | 3970 ± 87 CPM | 4464 ± 86 CPM | 2237 ± 53 CPM | significant T cell reactivity | responds well |  |  |
| DP II-20.6: Der p II peptide (DQVDVKDSANHEIKKVLVPGSHGSEP) |  |  |  |  |  |  | ranked sum of peptide responses ([4]; 30 patients, FIG. 17b): highest ranked sum |
| DP II-20: Der p II peptide (DQVDVKDCANHEIKKVLVPGCHGSEP) |  |  |  |  |  | positive T cell studies |  |
| DPII-8: printed among the modified forms; SEQ ID NO 171 in b126, probably DP II-20.8 (DQVDVKDCANHEIKKVLVPGCHGSEPK) |  |  |  |  |  | positive T cell studies |  |
